Experimental data published in patent US8440594B2, “Pyridothiazines having herbicidal action” (BASF SE, priority 2010, dated 2013).

Assays:
Test in all cases: Greenhouse herbicidal activity, post-emergence treatment
Type in all cases: in vivo
[1] = test system: Echinochloa crus-galli (ECHCG); settings: scale 0 to 100
From the text: (§1) The seeds of the test plants were sown separately for each species. For the post-emergence treatment, the test plants were first grown to a height of 3 to 15 cm, depending on the plant habit, and only then treated with the active ingredients which had been suspended or emulsified in water. For this purpose, the test plants were either sown directly and grown in the same containers, or they were first grown separately as seedlings and transplanted into the test containers a few days prior to treatment. Depending on the species, the plants were kept at 10-25° C. or 20-35° C. The test period extended over 2 to 4 weeks. During this time, the plants were tended, and their response to the individual treatments was evaluated. Evaluation was carried out using a scale from 0 to 100. 100 means no emergence of the plants, or complete destruction of at least the aerial moieties, and 0 means no damage, or normal course of growth. A good herbicidal activity is given at values of at least 70 and a very good herbicidal activity is given at values of at least 85. The plants used in the greenhouse experiments belonged to the following species: [table]

[2] = test system: Alopecurus myosuroides (ALOMY); settings: scale 0 to 100
From the text: as §1

Galium aparine (GALAP) = settings: scale 0 to 100
From the text: as §1

[3] = test system: Amaranthus retroflexus (AMARE); settings: scale 0 to 100
From the text: as §1

[4] = test system: Chenopodium album (CHEAL); settings: for herbicidal activity against CHEAL: scale 0 to 100; for pest or weed control at 500 g/ha: application rate 0.5 kg/ha
From the text: as §1

Setaria faberi (SETFA) = settings: application rate 0.5 kg/ha, scale 0 to 100
From the text: as §1

Stellaria media (STEME) = settings: scale 0 to 100
From the text: as §1

[5] = test system: Abutilon theophrasti (ABUTH); settings: application rate 0.25 kg/ha, scale 0 to 100
From the text: as §1

[6] = Chenopodium album, scale 0 to 100, read-out: herbicidal activity against CHEAL
[7] = Chenopodium album, application rate 0.25 kg/ha, scale 0 to 100, read-out: herbicidal activity against CHEAL

O=S1(=O)C(c2cc(F)ccc2C(F)(F)F)=C(O)c2ncccc2N1CC(F)F [Compound I-3]
herbicidal activity against ECHCG ([1]; application rate 0.5 kg/ha): very good herbicidal activity (a very good herbicidal activity is given at values of at least 85)

O=S1(=O)C(c2ccccc2Cl)=C(O)c2ncccc2N1CC(F)F [Compound I-5]
herbicidal activity against ECHCG ([1]; application rate 0.5 kg/ha): good herbicidal activity (A good herbicidal activity is given at values of at least 70)

O=S1(=O)C(c2cc(Cl)ccc2Cl)=C(O)c2ncccc2N1CC(F)F [Compound I-7]
herbicidal activity against ALOMY ([2]; application rate 0.5 kg/ha): very good herbicidal activity (a very good herbicidal activity is given at values of at least 85) | herbicidal activity against GALAP (Galium aparine (GALAP); application rate 0.5 kg/ha): good herbicidal activity (A good herbicidal activity is given at values of at least 70)

CC1=NOC(c2c(S(C)(=O)=O)ccc(C3=C(O)c4ncccc4N(CC(F)F)S3(=O)=O)c2C)C1 (stereo not shown) [Compound I-8]
herbicidal activity against AMARE ([3]; application rate 0.447 kg/ha): very good herbicidal activity (a very good herbicidal activity is given at values of at least 85) | herbicidal activity against CHEAL ([4]; application rate 0.447 kg/ha): very good herbicidal activity (a very good herbicidal activity is given at values of at least 85)

Cc1c(C2=C(O)c3ncccc3N(CC(F)F)S2(=O)=O)ccc2c1S(=O)(=O)CCC2(C)C [Compound I-10]
herbicidal activity against AMARE ([3]; application rate 0.041 kg/ha): very good herbicidal activity (a very good herbicidal activity is given at values of at least 85) | herbicidal activity against CHEAL ([4]; application rate 0.041 kg/ha): very good herbicidal activity (a very good herbicidal activity is given at values of at least 85)

CON=C1CCS(=O)(=O)c2c1ccc(C1=C(O)c3ncccc3N(CC(F)F)S1(=O)=O)c2C [Compound I-22]
herbicidal activity against SETFA (Setaria faberi (SETFA)): good herbicidal activity (A good herbicidal activity is given at values of at least 70)

CCOc1c(S(=O)(=O)CC)ccc(C2=C(O)c3ncccc3N(CC(C)C)S2(=O)=O)c1Cl [Compound I-29]
herbicidal activity against AMARE ([3]; application rate 0.154 kg/ha): very good herbicidal activity (a very good herbicidal activity is given at values of at least 85)

CCCCN1c2cccnc2C(O)=C(c2ccc(S(C)(=O)=O)c(OC)c2C)S1(=O)=O [Compound I-32]
pest or weed control at 400 g/ha ([4]; Chenopodium album, application rate 0.4 kg/ha, scale 0 to 100, read-out: herbicidal activity against CHEAL): ≥ 85%

COc1c(S(C)(=O)=O)ccc(C2=C(O)c3ncccc3N(CC(C)C)S2(=O)=O)c1C [Compound I-33]
herbicidal activity against CHEAL ([4]; application rate 0.345 kg/ha): very good herbicidal activity (a very good herbicidal activity is given at values of at least 85) | herbicidal activity against ECHCG ([1]; application rate 0.345 kg/ha): very good herbicidal activity (a very good herbicidal activity is given at values of at least 85)

CCN1c2cccnc2C(O)=C(c2cccc(OC(F)(F)F)c2Cl)S1(=O)=O [Compound I-34]
pest or weed control at 233 g/ha ([4]; Chenopodium album, application rate 0.233 kg/ha, scale 0 to 100, read-out: herbicidal activity against CHEAL): ≥ 85% | herbicidal activity against STEME (Stellaria media (STEME); application rate 0.233 kg/ha): very good herbicidal activity (a very good herbicidal activity is given at values of at least 85)

CN1c2cccnc2C(O)=C(c2ccc(Cl)cc2Cl)S1(=O)=O [Compound I-39]
pest or weed control at 500 g/ha [4, 6]: ≥ 85%

CCN1c2cccnc2C(O)=C(c2ccc(Cl)cc2Cl)S1(=O)=O [Compound I-40]
pest or weed control at 500 g/ha [4, 6]: ≥ 85%

CCCN1c2cccnc2C(O)=C(c2ccc(Cl)cc2Cl)S1(=O)=O [Compound I-41]
pest or weed control at 500 g/ha [4, 6]: ≥ 85%

CCCCN1c2cccnc2C(O)=C(c2ccc(Cl)cc2Cl)S1(=O)=O [Compound I-42]
pest or weed control at 500 g/ha [4, 6]: ≥ 85%

CN1c2cccnc2C(O)=C(c2ccccc2Cl)S1(=O)=O [Compound I-44]
pest or weed control at 100 g/ha ([4]; Chenopodium album, application rate 0.1 kg/ha, scale 0 to 100, read-out: herbicidal activity against CHEAL): ≥ 85% | herbicidal activity against ECHCG ([1]; application rate 0.1 kg/ha): very good herbicidal activity (a very good herbicidal activity is given at values of at least 85)

CN1c2cccnc2C(O)=C(c2ccccc2C(F)(F)F)S1(=O)=O [Compound I-45]
herbicidal activity against ABUTH [5]: very good herbicidal activity (a very good herbicidal activity is given at values of at least 85)

CC(C)N1c2cccnc2C(O)=C(c2ccccc2Cl)S1(=O)=O [Compound I-51]
pest or weed control at 500 g/ha [4, 6]: ≥ 85%

O=S1(=O)C(c2cc(Cl)cc(N3CCOCC3)c2C(F)(F)F)=C(O)c2ncccc2N1CC(F)F [Compound I-56, 3-[5-chloro-3-morpholino-2-(trifluoromethyl)phenyl]-1-(2,2-difluoroethyl)-2,2-dioxo-pyrido[3,2-c]thiazin-4-ol]
herbicidal activity against AMARE ([3]; application rate 0.25 kg/ha): good herbicidal activity (A good herbicidal activity is given at values of at least 70)

CCN1c2cccnc2C(O)=C(c2ccc(Cl)c(C)c2Cl)S1(=O)=O [Compound I-59]
pest or weed control at 154 g/ha ([4]; Chenopodium album, application rate 0.154 kg/ha, scale 0 to 100, read-out: herbicidal activity against CHEAL): ≥ 85%

O=S1(=O)C(c2ccc(F)cc2F)=C(O)c2ncccc2N1CC(F)F [Compound I-62]
herbicidal activity against CHEAL ([4]; application rate 0.0625 kg/ha): very good herbicidal activity (a very good herbicidal activity is given at values of at least 85) | herbicidal activity against GALAP (Galium aparine (GALAP); application rate 0.0625 kg/ha): good herbicidal activity (A good herbicidal activity is given at values of at least 70)

CCN1c2cccnc2C(O)=C(c2ccc(F)cc2F)S1(=O)=O [Compound I-63]
pest or weed control at 250 g/ha [4, 7]: ≥ 85%

CS(=O)(=O)c1ccc(C2=C(O)c3ncccc3N(CC(F)F)S2(=O)=O)c(Cl)c1C1=NOCC1 [Compound I-66]
herbicidal activity against AMARE ([3]; application rate 0.075 kg/ha): very good herbicidal activity (a very good herbicidal activity is given at values of at least 85) | herbicidal activity against CHEAL ([4]; application rate 0.075 kg/ha): very good herbicidal activity (a very good herbicidal activity is given at values of at least 85) | herbicidal activity against STEME (Stellaria media (STEME); application rate 0.075 kg/ha): very good herbicidal activity (a very good herbicidal activity is given at values of at least 85)

Cc1c(C2=C(O)c3ncccc3N(CC(F)F)S2(=O)=O)ccc2c1C(=O)C(C)(C)CS2(=O)=O [Compound I-71]
herbicidal activity against CHEAL ([4]; application rate 0.25 kg/ha): good herbicidal activity (A good herbicidal activity is given at values of at least 70)

CCN1c2cccnc2C(O)=C(c2ccc(Br)cc2Cl)S1(=O)=O [Compound I-81]
pest or weed control at 250 g/ha [4, 7]: ≥ 85%

COC(CN1c2cccnc2C(O)=C(c2ccccc2C(F)(F)F)S1(=O)=O)OC [Compound I-82]
herbicidal activity against ALOMY ([2]; application rate 0.25 kg/ha): very good herbicidal activity (a very good herbicidal activity is given at values of at least 85)
